{
  "source": "patent US20220241308A1",
  "about": "“NEURONAL FUNCTION MODULATING AGENT” (University of Tsukuba, priority 2019, published 2022)",
  "key": {"CASP3 (caspase-3)": {"test_system": "CASP3 (caspase-3)", "experiment": "Gene expression experiment (real-time PCR) in SH-SY5Y cells: CASP3", "type": "cell-based", "settings": "for expression of CASP3: 24 h", "description": "SH-SY5Y cells were seeded in 100 mm-cell dishes (BD Biocoat) at concentrations of 3.7×10^5 cells/mL (10 mL/dish) and cultured for 24 h at 37° C. and 5% CO2. Culture medium used was F12/DMEM (Gibco) supplemented with 1% non-essential amino acids (Gibco), 15% FBS (Bio West), and 1% penicillin/streptomycin (Lonza). After 24 h, the culture medium was completely removed with an aspirator, 10 mL of culture medium Opti-MEM(Gibco) was added to each dish, and the cells were cultured for 24 h at 37° C. and 5% CO2. RNA was extracted from the culture cells and analyzed for the expression of genes described below by real-time PCR (designated as “Control” in FIGS. 2 to 8).\nRNA extraction was performed using ISOGEN Reagent (Nippon Gene Co., Ltd.) in accordance with the protocol recommended by Nippo n Gene Co., Ltd. (see URL: https://www.nippongene.com/siyaku/product/extraction/tds/tds_isogen-rna-dna-protein.pdf). Real-time PCR was performed according to the protocol recommended by Thermo Fisher Scientific using a reagent kit for TaqMan Real-Time PCR (Thermo Fisher Scientific) (see URL: https://assets.thermofisher.com/TFS-Assets/LSG/manuals/4304449_TaqManPCRMM_UG.pdf).\n24 h after seeding 100 mm-cell dishes (BD Biocoat) with SH-SY5Y cells, the culture medium was completely removed with an aspirator, amyloid β protein (Beta-Amyloid 1-42, AnaSpec) was mixed with Opti-MEM (Gibco) so that the final concentration was 5 μM, 10 mL of the mixture was added to each dish, the cells were cultured for 24 h at 37° C. and 5% CO2, and RNA was extracted. Except for performing the procedure described above, gene expression was analyzed as described above (designated as “Aβ” in FIGS. 2 to 8).\n24 h after seeding 100 mm-cell dishes (BD Biocoat) with SH-SY5Y cells, the culture medium was completely removed with an aspirator, Sample 1 was mixed with culture medium Opti-MEM(Gibco) so that the final concentration was 12.56 μM, 9,990 μL of the mixture was added to each dish and allowed to stand for 10 min, amyloid β protein (Beta-Amyloid 1-42, AnaSpec) was mixed with Opti-MEM (Gibco) so that the final concentration was […], 10 μL of the mixture was added to each well, the cells were cultured for 24 h at 37° C. and 5% CO2, and RNA was extracted. Except for performing the procedure described above, Gene expression was analyzed as described above (designated as “Aβ+M3,5G” in FIGS. 2 to 8).\nExcept that Sample 2 was used instead of Sample 1, gene expression was analyzed as described above (designated as “Aβ+M” in FIGS. 2 to 8).\nExcept that Sample 3 was used instead of Sample 1, gene expression was analyzed as described above (designated as “Aβ+M3G” in FIGS. 2 to 8).\n24 h after seeding 100 mm-cell dishes (BD Biocoat) with SH-SY5Y cells, the culture medium was completely removed with an aspirator, 10 mL of culture medium Opti-MEM(Gibco) mixed with Sample 1 was added to each dish, the cells were cultured for 24 h at 37° C. and 5% CO2, and RNA was extracted. Except for performing the procedure described above, gene expression was analyzed as described above (designated as “M3,5G” in FIGS. 2 to 8)."}, "[1]": {"test_system": "senescence-accelerated mice (SAMP8)", "experiment": "Animal experiment: Morris water maze test (platform test, probe test)", "type": "in vivo", "settings": "SAMP8, oral, 30 days, 2.17 mg malvidin-3,5-diglucoside/kg/day", "description": "Mice and administration regimens used in the experiment are as described below. Breeding conditions are common to all groups.\nCompound (M3,5G)-treated (SAMP8) group: Sample 5 was orally administered to 10 senescence-accelerated mice (SAMP8) (16 weeks old, weighing 28-30 g, Japan SLC, Inc.) for a period of 30 days at a daily dose of 2.17 mg of malvidin-3,5-diglucoside per kg of mouse body weight (designated as “Senescence-accelerated mice+Compound (M3,5G)” in FIGS. 11 to 13).\nExtract-treated (SAMP8) group: Sample 4 was orally administered to 10 senescence-accelerated mice (SAMP8) (16 weeks old, weighing 28-30 g, Japan SLC, Inc.) for a period of 30 days at a daily dose of 25 mg of extract powder (2.17 mg of malvidin-3,5-diglucoside in […]) per kg of mouse body weight (designated as “Senescence-accelerated mice+Extract” in FIGS. 11 to 13). […]\nMice were released into the pool and the time taken for the mice to arrive at the platform was measured. […]\nOn the last day of the test, the platform was removed from the pool and the mice were again released into the pool. The number of times the mouse crossed the former platform location was counted and the time the mouse spent on the former platform location was measured."}},
  "data": [
    {"smiles": "COc1cc(-c2[o+]c3cc(O)cc(OC4OC(CO)C(O)C(O)C4O)c3cc2OC2OC(CO)C(O)C(O)C2O)cc(OC)c1O", "note": "(centres unmarked) [M3,5G, Malvidin-3,5-diglucoside chloride]", "values": [
      {"measurement": "expression of CASP3", "setting": "CASP3 (caspase-3); 12.56 μM, amyloid β protein-treated cells, compared to “Aβ”", "value": "significantly low"},
      {"measurement": "expression of CASP3", "setting": "CASP3 (caspase-3); 12.56 μM, amyloid β protein-treated cells, compared to “Control”", "value": "significantly low"},
      {"measurement": "expression of CASP3", "setting": "CASP3 (caspase-3); Sample 1 alone, no amyloid β, compared to “Control”", "value": "significantly decreased"},
      {"measurement": "activity in decreasing the expression of CASP3", "setting": "CASP3 (caspase-3); amyloid β protein-treated cells, 12.56 μM, ranked against malvidin and malvidin-3-glucoside", "value": "highest activity"},
      {"measurement": "learn and memory ability of animals", "setting": "[1]", "value": "improvements"}
    ]}
  ]
}
